What was measured:
[1] = Trial of phentermine in combination with topiramate to effect weight loss in patients; type: in vivo, human; conditions: follow-up 2-9 weeks
Method: Patients as part of the following trial were treated according to the following dosage regimen. Patients took phentermine at a dose of 15 mg daily throughout the weight loss program, before breakfast. For the first 6 days, patients took one 25 mg tablet of topiramate before supper. For the next 6 days, patients took two 25 mg tablets of topiramate before supper. For the next 7 days (days 13–19), patients took 100 mg before supper daily using 4–25 mg tablets of topiramate daily. For days 20–26, patients took 150 mg of topiramate daily consisting of one-half of a 200 mg tablet and two 25-mg mg tablets of topiramate. From that point on, unless instructed otherwise by the physician, patients continued to take one 200 mg topiramate tablet daily before supper and continued the 15 mg phentermine daily in the morning. Patients were advised to drink at least eight (8) full glasses of water daily to reduce the risk of kidney stones which may result from taking topiramate.
Patients were advised that while the effect of phentermine is fairly rapid, the effect of topiramate is slower in onset. The weight reduction effect of topiramate will continue for as long as 18 months on the medication. That is, the patient can expect to continue gradual weight loss for up to 18 months on the medication. Of course, weight loss is maximal if the patient follows diet and/or exercise programs. The weight loss should exceed 15% of the patients starting weight. Thus, if the patient weighs about 200 pounds as of the start date, he/she might expect to lose at least 30 pounds in a period of 12–18 months. The following patient data has been collected.
A total of thirteen patients were treated for 1–9 months with phentermine (15 mg daily) in the morning and up to 400 mg of topiramate (median dose 200 mg), in the evening. […] Along with taking medication, patients were instructed to walk at least 30 minutes three times per week and to follow a low fat diet. No patients had taken diet medication for at least 3 months prior to treatment. Average baseline BMI was 32.5 (range 26–48).

[2] = literature studies; cited from earlier work
[3] = Case history of patient(B), topiramate added to phentermine; type: in vivo, human; conditions: on phentermine after Redux withdrawal
Method: They once weighed as much as 395 pounds. When Redux was still on the mark in the United States, they were treated with a combination of diet, exercise, Redux and phentermine. Their lowest weight attained was 285 pounds. When Redux was withdrawn from the market, they remained on phentermine but gained weight back to 295–300 pounds. When topiramate was added to their regimen, they managed to lose 25 pounds and is currently at 271 pounds, their lowest weight since they were […].

## CC(C)CC(N(C)C)C1(c2ccc(Cl)cc2)CCC1.Cl (centres unmarked) [Meridia]
[1]; individual patients (one per line), phentermine 15 mg daily, topiramate titrated 25 to 200 mg daily
  Follow-Up Weight (lbs): 177 lbs
[1]; individual patients
  Follow-Up Blood Pressure: 120/80
[1]; individual patients, versus start weight
  % Weight Loss: 2.7%

## CCN[C@@H](C)Cc1cccc(C(F)(F)F)c1 [dexfenfluramine]
[2]
  weight loss, drug compared with placebo: about 5 % of body weight

## CCCCCCCCCCC[C@@H](C[C@@H]1OC(=O)[C@H]1CCCCCC)OC(=O)[C@H](CC(C)C)NC=O [orlistat]
[2]
  weight loss, drug compared with placebo: about 5 % of body weight

## CC(C)(N)Cc1ccccc1 [phentermine]
[2]
  weight loss, drug compared with placebo: about 5 % of body weight
[3]
  weight regained: 295–300 pounds

## CC(C)CC(N(C)C)C1(c2ccc(Cl)cc2)CCC1 (centres unmarked) [sibutramine]
[2]
  weight loss, drug compared with placebo: about 5 % of body weight

From US7056890B2, “Combination therapy for effecting weight loss and treating obesity” (VIVUS, Inc., priority 1999, dated 2006)
